The values below are quoted from earlier work in patent publication US8207376B2, “Method for producing amino acid phosphates” (priority 2006, dated 2012).

For data set [1] the following is noted: heating; known property.
The conditions of data set [2]: as reported in JP-A-2006-182753.
The conditions of data set [3]: as reported in JP-A-2006-182753. The source holds these as a separate data set.

Turning to `Cl.NCC(=O)CCC(=O)O` [δ-aminolevulinic acid hydrochloride], the “temperature at which it is completely degraded” value in data set [1] was no less than 156 °C. In the case of `NCC(=O)CCC(=O)O.O=P(O)(O)O` [δ-aminolevulinic acid phosphate], the “stimulative nature against the skin and tongue” value in data set [2] was “low stimulative nature against the skin and tongue”. In addition, the “permeability through the skin and the like” value in data set [3] is “excellent”.
